# Data taken from ChEMBL document CHEMBL1153273, “4-(Alkylthio)- and 4-(arylthio)-benzonitrile derivatives as androgen receptor antagonists for the topical suppression of sebum production” (Bioorg Med Chem Lett, 2009).
# Tests used:
# [1] = molecular target: T1, Androgen receptor (Homo sapiens, UniProt P10275)
# T1 sequence (P10275 whole entry): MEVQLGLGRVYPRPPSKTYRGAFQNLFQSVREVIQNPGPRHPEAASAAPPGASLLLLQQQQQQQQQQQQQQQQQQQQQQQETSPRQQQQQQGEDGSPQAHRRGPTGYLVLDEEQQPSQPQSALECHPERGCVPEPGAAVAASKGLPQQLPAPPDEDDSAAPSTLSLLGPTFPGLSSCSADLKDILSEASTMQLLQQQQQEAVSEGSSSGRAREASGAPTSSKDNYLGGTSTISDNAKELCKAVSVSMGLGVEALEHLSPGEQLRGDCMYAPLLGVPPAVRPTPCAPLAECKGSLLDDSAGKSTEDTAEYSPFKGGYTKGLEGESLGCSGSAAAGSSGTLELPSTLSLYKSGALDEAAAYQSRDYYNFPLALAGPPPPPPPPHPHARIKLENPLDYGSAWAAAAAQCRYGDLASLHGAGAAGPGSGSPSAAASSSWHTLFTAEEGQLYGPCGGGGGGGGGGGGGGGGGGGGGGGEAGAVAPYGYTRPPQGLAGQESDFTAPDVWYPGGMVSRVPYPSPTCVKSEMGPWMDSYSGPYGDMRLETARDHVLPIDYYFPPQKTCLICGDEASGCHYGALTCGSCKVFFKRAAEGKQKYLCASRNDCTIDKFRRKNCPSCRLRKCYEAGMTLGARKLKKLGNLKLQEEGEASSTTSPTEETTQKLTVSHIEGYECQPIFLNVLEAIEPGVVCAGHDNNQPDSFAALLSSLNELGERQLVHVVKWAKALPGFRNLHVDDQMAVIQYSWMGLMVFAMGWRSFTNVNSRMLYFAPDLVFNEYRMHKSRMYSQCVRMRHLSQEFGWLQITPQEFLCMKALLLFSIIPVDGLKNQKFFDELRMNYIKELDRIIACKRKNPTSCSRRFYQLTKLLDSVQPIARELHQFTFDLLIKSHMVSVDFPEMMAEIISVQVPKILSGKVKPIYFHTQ
# Description: Antagonist activity at human androgen receptor expressed in human MDA-MB453 cells by luciferase reporter gene assay
# [2] = molecular target: T1, Androgen receptor; test: biochemical
# Description: Displacement of [3H]DHT from human cloned androgen receptor expressed in Sf9 cells
# [3] = test system: Syrian golden hamster; test: Reduction of wax ester production in Syrian hamster ear topically dosed at 1% twice daily for 5 days per week for two weeks measured after 18 to 24 hrs of final dose by HPLC lipid analysis; format: functional, Mesocricetus auratus; design: scale not given: the % may be the effect or the level left
# [4] = test system: Syrian golden hamster; test: Reduction of cholesterol ester production in Syrian hamster ear topically dosed at 1% twice daily for 5 days per week for two weeks measured after 18 to 24 hrs of final dose by HPLC lipid analysis; format: functional, Mesocricetus auratus; design: scale not given: the % may be the effect or the level left
Structure (SMILES),IC50 [1] [nM],IC50 [2] [nM],Activity [3] [%],Activity [4] [%]
COc1cc(C#N)ccc1Oc1cccc(C)c1,–,353,–,–
CC(C)(C)Sc1ccc(C#N)c(C(F)(F)F)c1,–,315,–,–
N#Cc1ccc(SC2CCC2)cc1C(F)(F)F,167,194,–,–
COc1cc(C#N)ccc1Oc1ccccc1C,48,115,–,–
N#Cc1ccc(SCC2CC2)cc1C(F)(F)F,133,35,43,35
N#Cc1ccc(SCC2CCC2)cc1C(F)(F)F,702,63,–,–
CC(C)Sc1ccc(C#N)c(C(F)(F)F)c1,89,20,46,40
Cc1ccccc1Sc1ccc(C#N)c(C(F)(F)F)c1,123,225,–,–
COc1ccccc1Sc1ccc(C#N)c(C(F)(F)F)c1,37,56,–,–
Cc1cccc(C)c1Sc1ccc(C#N)c(C(F)(F)F)c1,–,411,–,–
Cc1cc(C)c(Sc2ccc(C#N)c(C(F)(F)F)c2)c(C)c1,–,1340,–,–
CCCSc1ccc(C#N)c(C(F)(F)F)c1,11,23,–,–
CCCCSc1ccc(C#N)c(C(F)(F)F)c1,838,49,–,–
Cc1ccccc1Sc1ccc(C#N)cc1Cl,78,43,–,–
Cc1ccccc1[S+]([O-])c1ccc(C#N)cc1Cl (configuration not stated),–,> 10000,–,–
CC(C)CCSc1ccc(C#N)c(C(F)(F)F)c1,–,519,–,–
N#Cc1ccc(Sc2ccccc2F)cc1C(F)(F)F,54,184,64,50
COc1cc(Sc2ccccc2OC)ccc1C#N,35,20,–,–
CC1(C)C(=O)N(c2ccc(C#N)c(C(F)(F)F)c2)C(=O)N1CCCCO [RU-58841],–,–,95,–

# Continued, in another order:
IC50 [1] [nM],IC50 [2] [nM],Structure (SMILES),Activity [3] [%],Activity [4] [%]
> 1000,40,CCCSc1ccc(C#N)c(OC)c1,–,–
10,29,COc1cc(SC(C)C)ccc1C#N,59,46
30,43,COc1cc(Sc2c(C)cccc2C)ccc1C#N,66,45
–,441,COc1cc(SCC2CCC2)ccc1C#N,–,–
66,84,CCCCSc1ccc(C#N)c(OC)c1,–,–
69,39,COc1cc(Sc2c(C)cc(C)cc2C)ccc1C#N,–,–
–,1730,COc1cc(SCCC(C)C)ccc1C#N,–,–
–,5210,COc1cc(C#N)ccc1Oc1ccc(C)cc1,–,–
197,57,COc1cc(Oc2cccc(C)c2)ccc1C#N,–,–
81,24,COc1cc(Oc2ccccc2C)ccc1C#N,–,–
209,200,COc1cc(Oc2ccc(C)cc2)ccc1C#N,–,–
55,169,COc1cc(SCC2CC2)ccc1C#N,–,–
